Results on two compounds are retold here after US6410723B1, “VDUP1 promoter and methods of use thereof” (priority 2000, dated 2002).

The subject of one test is VDUP1 gene. Conditions: human HL-60 cells; cited from earlier work.
The test system of test [1] is SV40 immediate early promoter. Description: Secreted alkaline phosphatase reporter assay, COS cells transfected with SV40 promoter control construct, treated with vitamin D3. Conditions: addition of vitamin D3 (200 nM), AP reporter. The format is cell-based. How it is done:
(§1) FIG. 5 is a graph showing secreted alkaline phosphatase (SEAP) activity upon transient transfection of COS cells of various VDUP1 promoter constructs operably linked to an alkaline phosphatase encoding nucleotide sequence, treated or untreated with 200 nM Vitamin D3.
(§2) Four deletion constructs were generated corresponding to 5′ end lengths of 1448bp (SEQ ID NO:1), 1002bp (SEQ ID NO:4), 597bp (SEQ ID NO:3), and 452bp (SEQ ID NO:2) as shown in FIG. 1. In the 452bp (SEQ ID NO:2) construct, the two Sp1 elements are deleted. Each fragment was generated by PCR from the 3.0 kb EcoRI-BamHI subclone, and introduced upstream of the secreted alkaline phosphatase (AP) reporter nucleic acid sequence. Representative clones of each were verified by DNA sequencing. The VDUP1 constructs were then transfected into COS cells and screened for expression in comparison to an SV40 immediate early promoter driven AP construct.

The next test has as its system thioredoxin (TRX). Conditions: HL-60 cells treated with vitamin D3; cited from earlier work.
Another test concerns VDUP1 promoter. Description: Secreted alkaline phosphatase reporter assay, COS cells transiently transfected with VDUP1 promoter constructs, treated with Vitamin D3. The format is cell-based, monkey. Conditions: 200 nM Vitamin D3, all constructs tested, AP reporter. Here is the method:
as §1, §2

For the compound `C[C@@H]1C[C@@H]([C@H](O)CC2CC(=O)NC(=O)C2)C(=O)[C@@H](C)C1` [cyclohexamide], the “induction of VDUP1” value in the test on VDUP1 gene is “several fold”.
With `C=C1/C(=C\C=C2/CCC[C@]3(C)[C@@H]([C@H](C)CCCC(C)(C)O)CC[C@@H]23)C[C@@H](O)C[C@@H]1O` [Vitamin D3, 1,25-dihydroxyvitamin D3], the “induction of SV40 control” value in test [1] is listed as “not induced”. Moreover, the “induction of VDUP1” value in the test on VDUP1 gene was “strongly induced”. The “expression of TRX” value with thioredoxin (TRX) is “significant decrease”. Also, the “enhancement of VDUP1 expression” value in the test on VDUP1 promoter is 25%.
